Assay results published in ChEMBL document CHEMBL1152573, “Synthesis and glycogen phosphorylase inhibitory activity of N-(beta-D-glucopyranosyl)amides possessing 1,4-benzodioxane moiety” (Bioorg Med Chem, 2009).

Tests used:
[1] = molecular target: T1, Glycogen phosphorylase, muscle form (Oryctolagus cuniculus, UniProt P00489); experiment: Inhibition of rabbit muscle glycogen phosphorylase b by cheng-prusoff equation
T1 sequence (P00489 whole entry): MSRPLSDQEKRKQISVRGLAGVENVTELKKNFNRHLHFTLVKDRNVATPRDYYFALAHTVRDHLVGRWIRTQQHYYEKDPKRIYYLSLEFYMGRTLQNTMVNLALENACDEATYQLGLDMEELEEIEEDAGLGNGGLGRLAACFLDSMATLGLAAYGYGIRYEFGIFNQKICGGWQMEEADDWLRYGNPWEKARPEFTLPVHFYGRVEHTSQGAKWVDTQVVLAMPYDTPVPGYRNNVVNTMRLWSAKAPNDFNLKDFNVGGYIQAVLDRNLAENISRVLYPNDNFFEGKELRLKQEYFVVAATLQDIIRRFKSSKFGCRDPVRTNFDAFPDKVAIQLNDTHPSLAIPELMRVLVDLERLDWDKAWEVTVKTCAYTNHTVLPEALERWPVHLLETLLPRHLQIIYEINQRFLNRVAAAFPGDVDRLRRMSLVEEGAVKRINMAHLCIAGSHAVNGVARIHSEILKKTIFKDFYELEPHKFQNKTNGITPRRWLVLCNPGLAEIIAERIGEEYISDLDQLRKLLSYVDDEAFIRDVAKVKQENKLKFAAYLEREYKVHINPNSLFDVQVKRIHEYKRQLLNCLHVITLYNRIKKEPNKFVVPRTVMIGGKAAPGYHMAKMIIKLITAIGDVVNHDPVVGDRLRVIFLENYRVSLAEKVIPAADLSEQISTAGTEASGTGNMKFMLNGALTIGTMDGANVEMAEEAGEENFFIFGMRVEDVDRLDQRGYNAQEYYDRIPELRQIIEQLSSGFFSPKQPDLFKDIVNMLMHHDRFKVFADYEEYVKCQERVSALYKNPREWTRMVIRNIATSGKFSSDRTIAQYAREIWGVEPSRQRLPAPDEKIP

[2] = molecular target: T1, Glycogen phosphorylase, muscle form; experiment: Inhibition of rabbit muscle glycogen phosphorylase b

| SMILES | Ki [1] [µM] | IC50 [2] [µM] |
| --- | --- | --- |
| O=C(N[C@@H]1O[C@H](CO)[C@@H](O)[C@H](O)[C@H]1O)c1cc(Br)c2c(c1)OCCO2 | 268 | 670 |
| COc1cc(C(=O)N[C@@H]2O[C@H](CO)[C@@H](O)[C@H](O)[C@H]2O)cc2c1OCCO2 | 232 | 580 |
| O=C(N[C@@H]1O[C@H](CO)[C@@H](O)[C@H](O)[C@H]1O)[C@H]1COc2ccccc2O1 | 128 | 320 |
| O=C(N[C@@H]1O[C@H](CO)[C@@H](O)[C@H](O)[C@H]1O)c1ccc2c(c1)OCCO2 | 252 | 630 |

Compounds with a lower Ki [1], results first:

| Ki [1] [µM] | IC50 [2] [µM] | SMILES |
| --- | --- | --- |
| 120 | 300 | O=C(N[C@@H]1O[C@H](CO)[C@@H](O)[C@H](O)[C@H]1O)[C@@H]1COc2ccccc2O1 |
| 85 | 125 | O=C(N[C@@H]1O[C@H](CO)[C@@H](O)[C@H](O)[C@H]1O)C1=COc2ccccc2O1 |
